Test results as given in ChEMBL document CHEMBL1201862, “PubChem BioAssay data set” (2004).
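A five-concentration, 48-hour dose response in 96-well plates underlies each endpoint, interpolated linearly between surrounding concentrations. GI50: concentration for 50% inhibition of growth.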 Activity calls are given as the source filed them. Cut-off read from the data, not from the text of the source: active = GI50 up to about 1.1 µM and inactive = higher.

Assays:
Test in all cases: growth of human tumour cells (NCI), 48 h
NCI-H226 = tested on: NCI-H226
KM12 = tested on: KM12
OVCAR-4 = tested on: OVCAR-4
TK-10 = tested on: TK-10
HOP-92 = tested on: HOP-92
M14 = tested on: M14
MDA-MB-435 = tested on: MDA-MB-435
A498 = tested on: A498
BT-549 = tested on: BT-549
NCI-H460 = tested on: NCI-H460
CAKI-1 = tested on: CAKI-1
MOLT-4 = tested on: MOLT-4
SF-295 = tested on: SF-295
PC-3 = tested on: PC-3
SF-539 = tested on: SF-539
T47D = tested on: T47D
SF-268 = tested on: SF-268
MDA-MB-231 = tested on: MDA-MB-231
MCF7 = tested on: MCF7
SK-OV-3 = tested on: SK-OV-3
U-251 = tested on: U-251
SNB-75 = tested on: SNB-75
Malme-3M = tested on: Malme-3M
NCI/ADR-RES = tested on: NCI/ADR-RES
HL-60 = tested on: HL-60
NCI-H522 = tested on: NCI-H522
A549 = tested on: A549
ACHN = tested on: ACHN
786-0 = tested on: 786-0
UACC-62 = tested on: UACC-62
NCI-H23 = tested on: NCI-H23
UACC-257 = tested on: UACC-257
HCT-116 = tested on: HCT-116
EKVX = tested on: EKVX
IGROV-1 = tested on: IGROV-1
SN12C = tested on: SN12C
SR = tested on: SR
CCRF-CEM = tested on: CCRF-CEM
COLO 205 = tested on: COLO 205
LOX IMVI = tested on: LOX IMVI
K562 = tested on: K562
RXF 393 = tested on: RXF 393
OVCAR-3 = tested on: OVCAR-3
OVCAR-5 = tested on: OVCAR-5
DU-145 = tested on: DU-145
HT-29 = tested on: HT-29
SK-MEL-28 = tested on: SK-MEL-28
SK-MEL-2 = tested on: SK-MEL-2
HCT-15 = tested on: HCT-15
OVCAR-8 = tested on: OVCAR-8
SNB-19 = tested on: SNB-19
HOP-62 = tested on: HOP-62
SK-MEL-5 = tested on: SK-MEL-5
Hs-578T = tested on: Hs-578T
RPMI-8226 = tested on: RPMI-8226
SW-620 = tested on: SW-620
UO-31 = tested on: UO-31
MDA-N = tested on: MDA-N
HCC 2998 = tested on: HCC 2998

Structure (SMILES): CC(C)(C)c1ccc(OC(=O)Nc2ccc(O)c(C(=O)O)c2)cc1
- GI50 (NCI-H226): > 100 µM (inactive)
- GI50 (KM12): > 100 µM (inactive)
- GI50 (OVCAR-4): > 100 µM (inactive)
- GI50 (TK-10): > 100 µM (inactive)
- GI50 (HOP-92): > 100 µM (inactive)
- GI50 (M14): > 100 µM (inactive)
- GI50 (MDA-MB-435): > 100 µM (inactive)
- GI50 (A498): > 100 µM (inactive)
- GI50 (BT-549): > 100 µM (inactive)
- GI50 (NCI-H460): > 100 µM (inactive)
- GI50 (CAKI-1): > 100 µM (inactive)
- GI50 (MOLT-4): > 100 µM (inactive)
- GI50 (SF-295): > 100 µM (inactive)
- GI50 (PC-3): > 100 µM (inactive)
- GI50 (SF-539): > 100 µM (inactive)
- GI50 (T47D): > 100 µM (inactive)
- GI50 (SF-268): > 100 µM (inactive)
- GI50 (MDA-MB-231): > 100 µM (inactive)
- GI50 (MCF7): > 100 µM (inactive)
- GI50 (SK-OV-3): > 100 µM (inactive)
- GI50 (U-251): > 100 µM (inactive)
- GI50 (SNB-75): > 100 µM (inactive)
- GI50 (Malme-3M): > 100 µM (inactive)
- GI50 (NCI/ADR-RES): > 100 µM (inactive)
- GI50 (HL-60): 30.7 µM (inactive)
- GI50 (NCI-H522): > 100 µM (inactive)
- GI50 (A549): > 100 µM (inactive)
- GI50 (ACHN): > 100 µM (inactive)
- GI50 (786-0): > 100 µM (inactive)
- GI50 (UACC-62): > 100 µM (inactive)
- GI50 (NCI-H23): > 100 µM (inactive)
- GI50 (UACC-257): > 100 µM (inactive)
- GI50 (HCT-116): > 100 µM (inactive)
- GI50 (EKVX): > 100 µM (inactive)
- GI50 (IGROV-1): > 100 µM (inactive)
- GI50 (SN12C): > 100 µM (inactive)
- GI50 (SR): > 100 µM (inactive)
- GI50 (CCRF-CEM): > 100 µM (inactive)
- GI50 (COLO 205): > 100 µM (inactive)
- GI50 (LOX IMVI): > 100 µM (inactive)
- GI50 (K562): > 100 µM (inactive)
- GI50 (RXF 393): > 100 µM (inactive)
- GI50 (OVCAR-3): > 100 µM (inactive)
- GI50 (OVCAR-5): > 100 µM (inactive)
- GI50 (DU-145): > 100 µM (inactive)
- GI50 (HT-29): > 100 µM (inactive)
- GI50 (SK-MEL-28): > 100 µM (inactive)
- GI50 (SK-MEL-2): > 100 µM (inactive)
- GI50 (HCT-15): > 100 µM
- GI50 (OVCAR-8): > 100 µM (inactive)
- GI50 (SNB-19): > 100 µM (inactive)
- GI50 (HOP-62): > 100 µM (inactive)
- GI50 (SK-MEL-5): > 100 µM (inactive)
- GI50 (Hs-578T): > 100 µM (inactive)
- GI50 (RPMI-8226): > 100 µM (inactive)
- GI50 (SW-620): > 100 µM (inactive)

Structure (SMILES): CS(=O)(=O)CC(=O)c1ccccc1
- GI50 (NCI-H226): > 100 µM (inactive)
- GI50 (KM12): > 100 µM (inactive)
- GI50 (UO-31): > 100 µM (inactive)
- GI50 (OVCAR-4): > 100 µM (inactive)
- GI50 (TK-10): > 100 µM (inactive)
- GI50 (MDA-N): > 100 µM (inactive)
- GI50 (M14): > 100 µM (inactive)
- GI50 (MDA-MB-435): > 100 µM (inactive)
- GI50 (A498): > 100 µM (inactive)
- GI50 (BT-549): > 100 µM (inactive)
- GI50 (NCI-H460): > 100 µM (inactive)
- GI50 (MOLT-4): > 100 µM (inactive)
- GI50 (SF-295): > 100 µM (inactive)
- GI50 (PC-3): > 100 µM (inactive)
- GI50 (SF-539): > 100 µM (inactive)
- GI50 (T47D): > 100 µM (inactive)
- GI50 (SF-268): > 100 µM (inactive)
- GI50 (MCF7): > 100 µM (inactive)
- GI50 (SK-OV-3): > 100 µM (inactive)
- GI50 (U-251): > 100 µM (inactive)
- GI50 (SNB-75): 38.8 µM (inactive)
- GI50 (Malme-3M): > 100 µM (inactive)
- GI50 (NCI/ADR-RES): > 100 µM (inactive)
- GI50 (HL-60): > 100 µM (inactive)
- GI50 (NCI-H522): > 100 µM (inactive)
- GI50 (A549): > 100 µM (inactive)
- GI50 (ACHN): > 100 µM (inactive)
- GI50 (786-0): > 100 µM (inactive)
- GI50 (UACC-62): > 100 µM (inactive)
- GI50 (NCI-H23): > 100 µM (inactive)
- GI50 (UACC-257): > 100 µM (inactive)
- GI50 (HCT-116): > 100 µM (inactive)
- GI50 (EKVX): > 100 µM (inactive)
- GI50 (IGROV-1): > 100 µM (inactive)
- GI50 (SN12C): > 100 µM (inactive)
- GI50 (SR): > 100 µM (inactive)
- GI50 (CCRF-CEM): > 100 µM (inactive)
- GI50 (COLO 205): > 100 µM (inactive)
- GI50 (LOX IMVI): > 100 µM (inactive)
- GI50 (K562): > 100 µM (inactive)
- GI50 (RXF 393): > 100 µM (inactive)
- GI50 (OVCAR-3): > 100 µM (inactive)
- GI50 (OVCAR-5): > 100 µM (inactive)
- GI50 (DU-145): > 100 µM (inactive)
- GI50 (HT-29): > 100 µM (inactive)
- GI50 (SK-MEL-28): > 100 µM (inactive)
- GI50 (HCC 2998): > 100 µM (inactive)
- GI50 (SK-MEL-2): > 100 µM (inactive)
- GI50 (HCT-15): > 100 µM
- GI50 (OVCAR-8): > 100 µM (inactive)
- GI50 (SNB-19): > 100 µM (inactive)
- GI50 (HOP-62): > 100 µM (inactive)
- GI50 (SK-MEL-5): > 100 µM (inactive)
- GI50 (Hs-578T): > 100 µM (inactive)
- GI50 (RPMI-8226): > 100 µM (inactive)
- GI50 (SW-620): > 100 µM (inactive)

Structure (SMILES): CCOC(=O)C(C)(Cc1ccc(O)cn1)NC(=O)c1ccccc1 (configuration not stated)
- GI50 (NCI-H226): > 100 µM (inactive)
- GI50 (KM12): > 100 µM (inactive)
- GI50 (UO-31): > 100 µM (inactive)
- GI50 (OVCAR-4): > 100 µM (inactive)
- GI50 (TK-10): > 100 µM (inactive)
- GI50 (MDA-N): > 100 µM (inactive)
- GI50 (HOP-92): 47 µM (inactive)
- GI50 (M14): > 100 µM (inactive)
- GI50 (MDA-MB-435): > 100 µM (inactive)
- GI50 (BT-549): > 100 µM (inactive)
- GI50 (NCI-H460): > 100 µM (inactive)
- GI50 (CAKI-1): > 100 µM (inactive)
- GI50 (MOLT-4): > 100 µM (inactive)
- GI50 (SF-295): > 100 µM (inactive)
- GI50 (PC-3): > 100 µM (inactive)
- GI50 (SF-539): > 100 µM (inactive)
- GI50 (SF-268): > 100 µM (inactive)
- GI50 (MDA-MB-231): > 100 µM (inactive)
- GI50 (SK-OV-3): > 100 µM (inactive)
- GI50 (U-251): > 100 µM (inactive)
- GI50 (SNB-75): 80.4 µM (inactive)
- GI50 (Malme-3M): > 100 µM (inactive)
- GI50 (NCI/ADR-RES): > 100 µM (inactive)
- GI50 (HL-60): > 100 µM (inactive)
- GI50 (NCI-H522): > 100 µM (inactive)
- GI50 (A549): > 100 µM (inactive)
- GI50 (ACHN): > 100 µM (inactive)
- GI50 (786-0): > 100 µM (inactive)
- GI50 (UACC-62): > 100 µM (inactive)
- GI50 (NCI-H23): > 100 µM (inactive)
- GI50 (UACC-257): > 100 µM (inactive)
- GI50 (HCT-116): > 100 µM (inactive)
- GI50 (EKVX): > 100 µM (inactive)
- GI50 (IGROV-1): > 100 µM (inactive)
- GI50 (SR): > 100 µM (inactive)
- GI50 (CCRF-CEM): > 100 µM (inactive)
- GI50 (COLO 205): > 100 µM (inactive)
- GI50 (LOX IMVI): > 100 µM (inactive)
- GI50 (K562): > 100 µM (inactive)
- GI50 (RXF 393): > 100 µM (inactive)
- GI50 (OVCAR-3): > 100 µM (inactive)
- GI50 (OVCAR-5): > 100 µM (inactive)
- GI50 (DU-145): > 100 µM (inactive)
- GI50 (HT-29): > 100 µM (inactive)
- GI50 (SK-MEL-28): > 100 µM (inactive)
- GI50 (HCC 2998): > 100 µM (inactive)
- GI50 (SK-MEL-2): > 100 µM (inactive)
- GI50 (HCT-15): > 100 µM
- GI50 (OVCAR-8): > 100 µM (inactive)
- GI50 (SNB-19): > 100 µM (inactive)
- GI50 (HOP-62): > 100 µM (inactive)
- GI50 (SK-MEL-5): > 100 µM (inactive)
- GI50 (Hs-578T): > 100 µM (inactive)
- GI50 (RPMI-8226): > 100 µM (inactive)
- GI50 (SW-620): > 100 µM (inactive)
